PubChem BioAssay (NCI)
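Cultured in 96-well plates, cells were exposed to test compound for 48 hours across five concentrations. The concentration for full growth arrest is given as TGI.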

Tests used:
Assay in all cases: DTP human tumour cell line panel, 48 h
[1] = tested on: K-562 leukemia
[2] = tested on: SF-268 CNS
[3] = tested on: BT-549 breast
[4] = tested on: UACC-257 melanoma
[5] = tested on: SF-295 CNS
[6] = tested on: LOX IMVI melanoma
[7] = tested on: MDA-N
[8] = tested on: PC-3 prostate
[9] = tested on: ACHN renal
[10] = tested on: SNB-19 CNS
[11] = tested on: OVCAR-5 ovarian
[12] = tested on: U251 CNS
[13] = tested on: CCRF-CEM leukemia
[14] = tested on: MOLT-4 leukemia
[15] = tested on: KM12 colon
[16] = tested on: SK-MEL-2 melanoma
[17] = tested on: SK-MEL-28 melanoma
[18] = tested on: T-47D breast
[19] = tested on: NCI-H23 lung

CN1Cc2cc3cc4c(cc3nc2N(C)C1)OCCO4
TGI [1]: > 100 µM
TGI [2]: > 100 µM
TGI [3]: > 100 µM
TGI [4]: > 100 µM
TGI [5]: > 100 µM
TGI [6]: > 100 µM
TGI [7]: > 100 µM
TGI [8]: > 100 µM
TGI [9]: > 100 µM
TGI [10]: > 100 µM
TGI [11]: > 100 µM
TGI [12]: > 100 µM
TGI [13]: > 100 µM
TGI [14]: > 100 µM
TGI [15]: > 100 µM
TGI [16]: > 100 µM

C=C(CCOC)CCC1CCCCC(=C)[C@H]1OC(C)=O (stereo partly specified)
TGI [1]: > 100 µM
TGI [2]: > 100 µM
TGI [4]: > 100 µM
TGI [5]: > 100 µM
TGI [17]: > 100 µM
TGI [6]: > 100 µM
TGI [7]: > 100 µM
TGI [18]: > 100 µM
TGI [8]: > 100 µM
TGI [9]: > 100 µM
TGI [10]: > 100 µM
TGI [11]: > 100 µM
TGI [12]: > 100 µM
TGI [13]: > 100 µM
TGI [14]: > 100 µM
TGI [15]: > 100 µM
TGI [19]: > 100 µM
TGI [16]: > 100 µM

CN1CCN(C(=S)N(C(=O)c2ccc(Cl)cc2)c2ccccc2)CC1
TGI [1]: > 100 µM
TGI [2]: > 100 µM
TGI [3]: > 100 µM
TGI [4]: > 100 µM
TGI [5]: > 100 µM
TGI [17]: > 100 µM
TGI [6]: > 100 µM
TGI [7]: > 100 µM
TGI [18]: > 100 µM
TGI [9]: > 100 µM
TGI [10]: > 100 µM
TGI [11]: > 100 µM
TGI [12]: > 100 µM
TGI [14]: > 100 µM
TGI [15]: > 100 µM
TGI [19]: > 100 µM
TGI [16]: > 100 µM

CC12O[C@]3([C@H](C(=O)N4CCOC43C)[C@H]1Cl)[C@H]1O[C@H]12 (stereo partly specified)
TGI [1]: > 100 µM
TGI [2]: > 100 µM
TGI [3]: > 100 µM
TGI [4]: > 100 µM
TGI [5]: > 100 µM
TGI [17]: > 100 µM
TGI [6]: > 100 µM
TGI [7]: > 100 µM
TGI [18]: > 100 µM
TGI [8]: > 100 µM
TGI [9]: > 100 µM
TGI [10]: > 100 µM
TGI [11]: > 100 µM
TGI [12]: > 100 µM
TGI [14]: > 100 µM
TGI [15]: > 100 µM
TGI [16]: > 100 µM

O=C(O)c1n[nH][nH]c1=S
TGI [1]: > 100 µM
TGI [2]: > 100 µM
TGI [4]: > 100 µM
TGI [5]: > 100 µM
TGI [17]: > 100 µM
TGI [6]: > 100 µM
TGI [7]: > 100 µM
TGI [18]: > 100 µM
TGI [8]: > 100 µM
TGI [9]: > 100 µM
TGI [10]: > 100 µM
TGI [11]: > 100 µM
TGI [12]: > 100 µM
TGI [13]: > 100 µM
TGI [14]: > 100 µM
TGI [15]: > 100 µM
TGI [19]: > 100 µM
TGI [16]: > 100 µM

Cc1ccc(Cc2n[nH]c(=O)n2Nc2ccccc2)cc1
TGI [1]: > 100 µM
TGI [2]: > 100 µM
TGI [3]: > 100 µM
TGI [4]: > 100 µM
TGI [5]: > 100 µM
TGI [17]: > 100 µM
TGI [6]: > 100 µM
TGI [7]: > 100 µM
TGI [18]: > 100 µM
TGI [9]: > 100 µM
TGI [10]: > 100 µM
TGI [11]: > 100 µM
TGI [12]: > 100 µM
TGI [13]: > 100 µM
TGI [14]: > 100 µM
TGI [15]: > 100 µM
TGI [19]: > 100 µM
TGI [16]: > 100 µM

Cc1ccc(C2=Nn3c(nc4sc(C)c(C)c4c3=O)SC2)cc1
TGI [1]: > 100 µM
TGI [2]: > 100 µM
TGI [3]: > 100 µM
TGI [4]: > 100 µM
TGI [5]: > 100 µM
TGI [17]: > 100 µM
TGI [6]: > 100 µM
TGI [7]: > 100 µM
TGI [18]: > 100 µM
TGI [8]: > 100 µM
TGI [9]: > 100 µM
TGI [11]: > 100 µM
TGI [12]: > 100 µM
TGI [14]: > 100 µM
TGI [15]: > 100 µM
TGI [19]: > 100 µM

CCCCCC(C/C=N/N(C)C)C(O)(C(F)(F)F)C(F)(F)F (stereo unspecified)
TGI [1]: > 100 µM
TGI [2]: > 100 µM
TGI [5]: > 100 µM
TGI [17]: > 100 µM
TGI [6]: > 100 µM
TGI [7]: > 100 µM
TGI [18]: > 100 µM
TGI [8]: > 100 µM
TGI [9]: 52.7 µM
TGI [10]: > 100 µM
TGI [11]: > 100 µM
TGI [12]: > 100 µM
TGI [13]: 62.7 µM
TGI [14]: > 100 µM
TGI [15]: 81.6 µM
TGI [19]: > 100 µM
TGI [16]: > 100 µM

Cc1ccc(S(=O)(=O)N2CCC(=O)c3cc(Br)ccc32)cc1
TGI [1]: > 30.9 µM
TGI [2]: > 94.8 µM
TGI [3]: > 88.9 µM
TGI [4]: 46.6 µM
TGI [5]: 55.7 µM
TGI [17]: > 100 µM
TGI [6]: > 64.6 µM
TGI [7]: 13.3 µM
TGI [18]: > 100 µM
TGI [8]: 75.4 µM
TGI [9]: > 100 µM
TGI [10]: 99.4 µM
TGI [11]: > 100 µM
TGI [12]: > 35 µM
TGI [14]: > 26.6 µM
TGI [15]: > 26.1 µM
TGI [19]: > 93.9 µM
TGI [16]: 36.3 µM

CN(C)c1ccc(/C=C/C(=O)CC(=O)/C=C/c2ccc(N(C)C)cc2)cc1
TGI [1]: > 100 µM
TGI [2]: > 100 µM
TGI [5]: > 100 µM
TGI [17]: > 100 µM
TGI [6]: > 100 µM
TGI [7]: > 100 µM
TGI [18]: > 100 µM
TGI [8]: > 100 µM
TGI [9]: > 100 µM
TGI [10]: > 100 µM
TGI [11]: > 100 µM
TGI [12]: > 100 µM
TGI [13]: > 100 µM
TGI [14]: > 100 µM
TGI [15]: > 100 µM
TGI [16]: > 100 µM
